From patent US11712425B2, “Immunoregulatory role of 3-OH-kynurenamine and uses thereof” (ALBERT EINSTEIN COLLEGE OF MEDICINE, priority 2018, dated 2023)
Entries after “also recorded” stand apart in the source; their conditions may differ.

Key:
AhR = biological target: T1, AhR (Mus musculus, UniProt P30561); experiment: AhR luciferase reporter (Cyp1a1 promoter) in mouse embryonic fibroblasts; assay type: cell-based; conditions: for AhR activation (luciferase reporter): MEFs constitutively expressing AhR, stimulated 24 hours, different concentrations
T1 construct: mouse embryonic fibroblasts (MEFs) constitutively expressing AhR; endogenous in cells; host or cells: mouse embryonic fibroblasts (MEFs)
T1 sequence (P30561 10-848): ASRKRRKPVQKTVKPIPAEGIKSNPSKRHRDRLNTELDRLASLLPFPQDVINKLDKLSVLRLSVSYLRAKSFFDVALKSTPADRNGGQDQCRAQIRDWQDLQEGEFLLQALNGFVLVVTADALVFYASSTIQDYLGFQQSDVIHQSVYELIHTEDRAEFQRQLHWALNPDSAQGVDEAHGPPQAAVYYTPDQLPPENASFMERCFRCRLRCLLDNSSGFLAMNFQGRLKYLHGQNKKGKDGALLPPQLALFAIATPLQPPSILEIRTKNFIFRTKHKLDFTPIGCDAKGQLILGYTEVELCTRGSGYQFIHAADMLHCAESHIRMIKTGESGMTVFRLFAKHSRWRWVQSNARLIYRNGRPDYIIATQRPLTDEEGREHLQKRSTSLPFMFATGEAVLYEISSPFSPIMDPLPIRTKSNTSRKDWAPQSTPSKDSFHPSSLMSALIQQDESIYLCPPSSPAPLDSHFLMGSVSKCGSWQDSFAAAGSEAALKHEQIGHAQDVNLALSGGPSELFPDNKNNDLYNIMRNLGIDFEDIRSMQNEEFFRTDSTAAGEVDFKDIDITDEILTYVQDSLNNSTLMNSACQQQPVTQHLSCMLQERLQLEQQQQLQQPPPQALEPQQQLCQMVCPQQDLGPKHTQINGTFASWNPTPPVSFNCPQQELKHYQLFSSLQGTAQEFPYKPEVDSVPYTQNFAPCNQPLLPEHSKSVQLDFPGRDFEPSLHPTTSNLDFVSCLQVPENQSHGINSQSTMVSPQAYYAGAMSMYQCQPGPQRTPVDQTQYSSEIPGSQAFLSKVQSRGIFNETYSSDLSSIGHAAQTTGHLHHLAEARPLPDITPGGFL
Method: Cells were either untreated or stimulated for 24 hours with different concentrations of 3-OH-kynurenamine and, as positive control, L-kynurenine, the known AhR agonist.

cDCs = experiment: Gene expression by RT-PCR in conditioned cDCs; assay type: cell-based, mouse; conditions: cDCs from spleens of C57BL/6 mice, 30 μM, after 2-6 hr
Method: FIG. 3A-3D. 3-OH-kynurenamine confers immunosuppressive properties on DCs. […] Analysis (B) was calculated from 3 independent experiments. C and D) mouse cDCs (C) and human PBMCs (D). After incubation with 30 (C) or 2 (D) μM kynurenines, gene expression was evaluated by RT-PCR at 6− (C) or 6 and 18 (D) h. Data were normalized to GAPDH expression and presented relative to results in untreated cells (dotted line, one-fold). Mean fold induction+SD of triplicate experiments.
(§1) Biological Role of 3-OH-Kynurenamine. Trp metabolites are known to exert several functions in immune cells. In dendritic cells, either cDCs or pDCs, incubation with L-kynurenine and/or 3-OH-anthranilic acid induces IDO1 expression and production of immunosuppressive TGF-β production. In turn, cDCs and pDCs conditioned with these Trp catabolites increase differentiation of T lymphocytes into Treg cells in vitro and, when administered in vivo, induce antigen-specific T cell tolerance.

[1] = system: antigen-specific delayed-type hypersensitivity; experiment: In vivo suppressive activity of conditioned DCs (delayed-type hypersensitivity, footpad skin test); design: species or system mice; conditions: cDCs conditioned 24 hr with 30 μM, pulsed with IGRP peptide; skin reactivity at 15 days
Method: FIG. 4A-4B. […] B) In vivo suppressive activity of CD8^− DCs, pulsed with the IGRP peptide (an autoantigen in autoimmune diabetes), in combination with a minority fraction (5%) of CD8^− DCs either untreated (Unt) or pretreated with 30 μM 3-OH-kynurenamine for 24 h and pulsed with the same peptide prior in vivo administration; analysis of skin reactivity of recipient mice to the eliciting peptide at 15 days is presented as change in footpad weight. ***P<0.001 (mean weight of experimental versus control footpads, i.e., injected with vehicle alone). Results are presented as fold induction±SD of triplicate experiments.
as §1

dendritic cells = experiment: Quantitative proteomics of dendritic cells treated with 3-OH-kynurenamine; assay type: cell-based
NFκB pathway = experiment: Western blot of NFκB pathway in DCs; assay type: cell-based; conditions: 3 independent experiments
Psoriasis model = experiment: Imiquimod-induced psoriasis model; assay type: in vivo, mice; conditions: Imiquimod 7 days, 50 mg/kg ip for 7 days
Method: FIG. 5A-5B. […] Some of the mice were also treated with 3-OH-Kynurenamine (50 mg/kg ip; for 7 days). Controls are mice that were shaved but left untreated; Imiquimod and Imiquimod plus 3-OH-Kynurenamine refers to the specific treatments. After 7 days mice were sacrificed and skin processed for H&E staining.
as §1

[2] = system: nephrotoxic nephritis (NTN); experiment: Nephrotoxic nephritis (NTN) model; assay type: in vivo, 129/Sv mice; conditions: daily intraperitoneal 50 mg/kg from day +4 until day +12
Method: FIG. 6A-6F. […] Ten week old female 129/Sv mice were immunized intraperitoneally with rabbit IgG in complete Freund's adjuvant (day 0). Five days later, mice received an intravenous injection of 90 ul of pre-formed rabbit anti-mouse glomerular basement membrane antibodies (N-Ab) or PBS. Starting at day +4, mice started receiving daily intraperitoneal injections of 50 mg/kg of 3-OH-kynurenamine (n=6) or vehicle control (n=8) until sacrifice on day +12. A) Proteinuria levels determined at sacrifice by uristix. B) % of mice in each group at sacrifice that reached the predetermined cut-off value for severe proteinuria of >300 mg/dl. C) Blood Urea Nitrogen levels determined at sacrifice. D) % of mice in each group that reach pre-specified humane end points for sacrifice (>300 mg/dl on two consecutive days, a single value of >2000 mg/dl, or poor general well being. E and F) All groups of mice developed similar titers of E) antirabbit injected Ab and F) anti-GBM Ab. […] (*p<0.05, **p<0.01).
Biological Role of 3-OH-Kynurenamine. Trp metabolites are known to exert several functions in immune cells. In dendritic cells, either cDCs or pDCs, incubation with L-kynurenine and/or 3-OH-anthranilic acid induces IDO1 expression and production of immunosuppressive TGF-β production. […]

[3] = biological target: T2, aromatic L-amino acid decarboxylase (AADC) (Homo sapiens, UniProt P20711); experiment: Decarboxylation by recombinant AADC; assay type: biochemical; conditions: enzyme plus PLP, monitored over 40 min, CO2 production
T2 construct: full-length recombinant AADC was incubaled with 3-OH-kynurenine
T2 sequence (P20711 1-480): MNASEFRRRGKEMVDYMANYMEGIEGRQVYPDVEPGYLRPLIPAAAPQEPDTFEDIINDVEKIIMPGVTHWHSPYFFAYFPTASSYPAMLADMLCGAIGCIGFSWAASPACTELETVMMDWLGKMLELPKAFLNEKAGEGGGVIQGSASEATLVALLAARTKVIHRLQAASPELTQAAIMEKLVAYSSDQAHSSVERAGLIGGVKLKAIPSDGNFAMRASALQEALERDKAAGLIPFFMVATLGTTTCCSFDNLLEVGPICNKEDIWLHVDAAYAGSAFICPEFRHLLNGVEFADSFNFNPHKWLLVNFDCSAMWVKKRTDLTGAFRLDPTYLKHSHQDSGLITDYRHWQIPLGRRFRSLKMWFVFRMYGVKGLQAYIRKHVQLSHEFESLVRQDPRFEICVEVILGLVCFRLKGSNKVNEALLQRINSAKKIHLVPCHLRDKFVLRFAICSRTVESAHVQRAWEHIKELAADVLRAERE
Method: FIG. 2. […] Tryptophan, a natural substrate for aromatic L-amino acid decarboxylase (AADC) was incubated with the enzyme and the PLP catalyst. In a separate reaction 3-OH-kynurenine was incubated under the same experimental conditions. Reactions were monitored over a 40 min. period. […] One of a triplicate experiment is shown.
As a next step, to determine whether AADC is the natural enzyme processing 3-OH-L-kynurenine into 3-OH-kynurenamine, full-length recombinant AADC was incubaled with 3-OH-kynurenine and its conversion to 3-OH-kynurenamine was followed by detecting CO2 production due to decarboxylation.

## NCCC(=O)c1cccc(O)c1N [3-OH-kynurenamine]
AhR
  AhR activation (luciferase reporter): induced a concentration-dependent AhR activation
AhR; MEFs, 24 hours
  AhR activation relative to L-kynurenine: around 6.5 times
cDCs
  Tgfbl transcripts: significantly upregulates
  idol transcripts: significantly upregulates
[1]
  antigen-specific delayed-type hypersensitivity induced by immunostimulatory cDCs: suppressed antigen-specific delayed-type hypersensitivity
Dendritic cells; cDC, 20 μM, 24 hr, IFNγ/3-OH-kynurenamine vs IFNγ control
  NF-κB inhibitor IKB level (quantitative proteomic): up-regulation of the NF-κB inhibitor IKB
Dendritic cells; dendritic cells, media supplemented with 3-OH-Kynurenamine vs media alone
  MS1 quantification of immunological relevant proteins: down-regulated
NFκB pathway
  NFκB pathway (Western blot, densitometry): downregulation of the NFκB pathway
Psoriasis model; 50 mg/kg
  skin inflammation / clinical and histological manifestation of psoriasis: decreases clinical and histological manifestation of psoriasis; also recorded: decrease skin inflammation
Psoriasis model; H&E staining
  epidermis hyperplasia: statistically significant lower levels
  ortho and parakeratosis: statistically significant lower levels
  rete ridges formation: statistically significant lower levels
[2]
  nephrotoxic nephritis / kidney damage (proteinuria, overall animal survival): attenuates nephrotoxic nephritis (NTN)
[2]; listed as 3-OH-Kynurenamine
  nephrotoxic nephritis / kidney damage (proteinuria, overall animal survival): decrease

## Nc1c(O)cccc1C(=O)C[C@H](N)C(=O)O [3-OH-kynurenine]
[3]
  conversion (decarboxylation) by AADC: converted to 3-OH-kynurenamine; also recorded: AADC was capable of inducing 3-OH-kynurenine decarboxylation

## Nc1ccccc1C(=O)C[C@H](N)C(=O)O [L-kynurenine, reference compound]
AhR
  AhR activation (luciferase reporter): activated AhR in a concentration-dependent manner

## N[C@@H](Cc1c[nH]c2ccccc12)C(=O)O [Trp, Tryptophan]
[3]
  conversion (decarboxylation) by AADC: converted to Tryptamine
